From US20070099963A1, “Nematicidal compositions and methods” (priority 2005, published 2007)

Key:
[1] = test system: Thrips; assay: Thrips damage rating on cotton plants (Example 1); type: in vivo; conditions: cotton Delta and Pineland variety 555, rating 1 = no damage, 5 = plant dead; for Thrips Damage Rating 3 weeks: 3 weeks after planting; for Thrips Damage Rating 4 weeks: 4 weeks after planting
Excerpt: This example illustrates the effect of a composition of the invention on cotton plant damage and plant height for cotton plants planted in soil known to have nematode (Rotylenchulus reniformis) pressure. The cotton plants utilized were commercially available Delta and Pineland variety 555.
The compositions described in Table 1 below were applied either as a seed treatment (Samples B, C, and E-G) or in furrow (Sample D) at the respective application rates set forth in Table 1.

[2] = test system: Thrips; assay: Thrips damage rating on cotton plants (Example 2); type: in vivo; conditions: Fibermax cotton variety 960, rating 1 = no damage, 5 = plant dead; for Thrips Damage Rating 3 weeks: 3 weeks after planting; for Thrips Damage Rating 4 weeks: 4 weeks after planting
Excerpt: This example illustrates the effect of the compositions from Table 1 for cotton plants planted in soil known to have nematode (Rotylenchulus reniformis) pressure. FIGS. 4 and 5 illustrate the Thrips damage ratings at three and four weeks, respectively, after planting. FIG. 6 illustrates the plant height seven weeks after planting. The cotton plants utilized were commercially available Fibermax cotton variety 960.

Row | Compound | Thrips Damage Rating 3 weeks [1] | Thrips Damage Rating 4 weeks [1] | Thrips Damage Rating 3 weeks [2] | Thrips Damage Rating 4 weeks [2]
1 | O=[N+]([O-])NC1=NCCN1Cc1ccc(Cl)nc1 [B, imidacloprid] | 2 | 2.3 | 2.63 | 2.5
2 | O=[N+]([O-])NC1=NCCN1Cc1ccc(Cl)nc1 [E, imidacloprid] | 2.25 | 2.4 | 2.88 | 3
3 | CNC(=O)O/N=C/C(C)(C)SC [Sample D, aldicarb] | 1.13 | 1.5 | 2.5 | 2.1
